Data from patent US12060385B2, “Compounds for RNA capping and uses thereof” (GUANGZHOU HENOVCOM BIOSCIENCE CO., LTD., priority 2022, dated 2024).

Columns and labels:
Assay type in all cases: biochemical
T7 RNA Polymerase = T7 RNA Polymerase (Escherichia phage T7, UniProt P00573); conditions: 20 μL transcription system, Cap1 Analog 4 mM, 37° C. 2 to 3 hours
Experimental: • 1) A plasmid was linearized and the DNA template was purified. • 2) mRNA was synthesized in vitro with 51 types of capping structures of the present disclosure, or without any cap analogues. CleanCap®AG (3′OMe) (Trilink, N-7413) was applied as positive control group, uncapped mRNA was negative control group, and DNAase/RNase-Free water was a blank control group.
The system was incubated for 2 to 3 hours at 37° C. and digested by TURBO DNase for 15 min LiCl was used to precipitate mRNA for at least 30 min, or overnight, mRNA precipitates were then washed with 75% ethanol. After ethanol was quickly volatilized, mRNA was re-solubilized with RNase-Free water. • 3) The transcribed products were purified and the transcription yields were calculated.

mRNA = test: Capping efficiency of mRNA with different cap analogs by LC-MS; conditions: LC-MS after RNase H cleavage
Experimental: In a PCR machine, the annealing was performed using the following gradients: • 95° C. for 5 min; 65° C. for 2 min; 55° C. for 2 min; 40° C. for 2 min; 22° C. for 2 min • 5) Pre-treatment of magnetic beads were bound with probes.
100 μL of magnetic beads were placed on a magnetic rack and the preservation solution was removed. 100 μL of 1*BW solution was added, mixed well, and placed on the magnetic rack, and the supernatant was then removed. The washing step was repeated three times. 100 μL of wash A buffer was added, mixed well, and placed on the magnetic rack, and the supernatant was then removed. The washing step was repeated three times. 100 μL of wash B buffer was added, mixed well, and placed on the magnetic rack, and the supernatant was then removed. The washing step was repeated three times. After 120 μL of sample was added, the sample and the magnetic beads solution were incubated for 30 min at room temperature, and they were gently mixed well while incubation. • 6) mRNA was spliced to obtain 5′ end mRNA single stranded sequence and binding with the probe.
20 μL of RNase H (5 U/mL) was added, incubated for 3 hours at 37° C., mixed once every half an hour. 100 μL of 1*BW solution was added, mixed well, and placed on the magnetic rack, and then the supernatant was removed. The washing step was repeated three times. Subsequently, 100 μL of deionized aqueous solution was added, mixed well, and placed on the magnetic rack, and the supernatant was then removed. The washing step was repeated three times. 100 μL of 75% methanol at 80° C. was added, and the mixture was incubated at 80° C. on a heater plate for 3 min, and placed on the magnetic rack, and the supernatant was then pipetted. The sample was dried using an evaporative centrifuge at room temperature for 45 min to 10 μL, and then resuspended in 50 μL of 100 μM EDTA solution in 1% MeOH for LC-MS analysis.
The capping efficiencies of mRNA with different cap analogs were determined by LC-MS, and some compounds of the results were shown in Table 4.

mRNA Decapping Enzyme = test: Stability of the capped mRNA against the mRNA decapping enzymes
Experimental: • 1) The capped mRNAs were heated at 65° C. for 10 min and their secondary structures were unfolded. • 2) The concentration of mRNA Deacpping Enzyme was diluted from the original concentration (100 U/uL) to 50 U/uL, 5 U/uL, 0.5 U/uL in a 10-fold gradient dilution ratio. • 3) The capped mRNAs were added to the reaction, and the amount of enzyme in the reaction was 50 U, 5 U, 0.5 U, 0 U, respectively. The mixture was mixed with a pipette, and was incubated at 37° C. for 1 hour.
• 4) The RNA was purified using a LiCl Precipitation method, and then diluted to 500 ng/uL*20 uL for subsequent cell transfection. • 5) The cells were transfected with mRNA, and luciferase expression was detected in the same method as Experiment 2.
In FIG. 1, the luminescence unit of luciferase expressed by mRNA without decapping enzyme treatment (0 U) was 100%, and the percentage of the luminescence unit of luciferase expressed by capped mRNA treated with different concentrations of […] to the luminescence unit of luciferase expressed by capped mRNA without decapping enzyme treatment was calculated.

Sequence of T7 RNA Polymerase (P00573 whole entry): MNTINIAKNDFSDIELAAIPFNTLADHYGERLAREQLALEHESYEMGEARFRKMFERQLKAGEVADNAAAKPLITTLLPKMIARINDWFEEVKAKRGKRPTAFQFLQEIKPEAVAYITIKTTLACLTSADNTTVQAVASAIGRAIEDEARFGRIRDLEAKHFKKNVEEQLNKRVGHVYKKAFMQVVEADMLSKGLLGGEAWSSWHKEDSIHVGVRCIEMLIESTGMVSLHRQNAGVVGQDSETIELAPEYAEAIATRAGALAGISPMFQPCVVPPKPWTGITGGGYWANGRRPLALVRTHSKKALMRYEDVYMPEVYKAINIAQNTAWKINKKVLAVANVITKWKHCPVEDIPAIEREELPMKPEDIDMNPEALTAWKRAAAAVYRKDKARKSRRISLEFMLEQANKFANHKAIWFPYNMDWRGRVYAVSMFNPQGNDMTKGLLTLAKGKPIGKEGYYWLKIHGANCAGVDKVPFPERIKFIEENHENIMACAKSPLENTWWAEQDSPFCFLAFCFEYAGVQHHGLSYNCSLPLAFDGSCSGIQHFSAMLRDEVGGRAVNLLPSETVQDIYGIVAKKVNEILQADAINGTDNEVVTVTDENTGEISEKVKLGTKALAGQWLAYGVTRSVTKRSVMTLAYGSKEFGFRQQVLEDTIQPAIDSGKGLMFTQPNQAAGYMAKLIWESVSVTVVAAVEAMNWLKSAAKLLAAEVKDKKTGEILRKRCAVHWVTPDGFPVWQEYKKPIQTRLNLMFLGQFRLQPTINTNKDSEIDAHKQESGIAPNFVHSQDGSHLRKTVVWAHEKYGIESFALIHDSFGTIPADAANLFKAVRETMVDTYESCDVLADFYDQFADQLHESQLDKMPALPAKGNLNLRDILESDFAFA

SMILES | Final product mass obtained from the 20 μL of mRNA transcription system (T7 RNA Polymerase) [µg] | Capping efficiency (mRNA) | Stability of capped mRNA against decapping enzyme (FIG. 1) (mRNA Decapping Enzyme; at low concentration of decapping enzyme) | Stability of capped mRNA against decapping enzyme (FIG. 1) (mRNA Decapping Enzyme; when the concentration of decapping enzyme was higher)
CCOC[C@H]1[C@@H](O)[C@H](n2c[n+](C)c3c(=O)[nH]c(N)nc32)O[C@@H]1COP(=O)(O)OP(=O)(O)OP(=O)(O)OC[C@H]1O[C@@H](n2cnc3c(N)ncnc32)[C@H](OC)[C@@H]1OP(=O)(O)OC[C@H]1O[C@@H](n2cnc3c(=O)[nH]c(N)nc32)[C@H](O)[C@@H]1O [Compound 139] | 116 | A (100% > A ≥ 95%) |  | 
COCCOC[C@H]1[C@@H](O)[C@H](n2c[n+](C)c3c(=O)[nH]c(N)nc32)O[C@@H]1COP(=O)(O)OP(=O)(O)OP(=O)(O)OC[C@H]1O[C@@H](n2cnc3c(N)ncnc32)[C@H](OC)[C@@H]1OP(=O)(O)OC[C@H]1O[C@@H](n2cnc3c(=O)[nH]c(N)nc32)[C@H](O)[C@@H]1O [Compound 141] | 84 | A (100% > A ≥ 95%) |  | 
COC[C@H]1[C@@H](O)[C@H](n2c[n+](C)c3c(=O)[nH]c(N)nc32)O[C@@H]1COP(=O)(O)OP(=O)(O)CP(=O)(O)OC[C@H]1O[C@@H](n2cnc3c(N)ncnc32)[C@H](OC)[C@@H]1OP(=O)(O)OC[C@H]1O[C@@H](n2cnc3c(=O)[nH]c(N)nc32)[C@H](O)[C@@H]1O [Compound 173] | 118 | A (100% > A ≥ 95%) | the same stability as that of N-7413 | a better stability than that of N-7413
CNC(=O)C[C@H]1[C@@H](O)[C@H](n2c[n+](C)c3c(=O)[nH]c(N)nc32)O[C@@H]1COP(=O)(O)OP(=O)(O)OP(=O)(O)OC[C@H]1O[C@@H](n2cnc3c(N)ncnc32)[C@H](OC)[C@@H]1OP(=O)(O)OC[C@H]1O[C@@H](n2cnc3c(=O)[nH]c(N)nc32)[C@H](O)[C@@H]1O [Compound 393] | 95 | A (100% > A ≥ 95%) |  | 
CO[C@@H]1[C@H](OP(=O)([O-])OC[C@H]2O[C@@H](n3cnc4c(=O)[nH]c(N)nc43)[C@H](O)[C@@H]2O)[C@@H](COP(=O)(O)OP(=O)(O)OP(=O)(O)OC[C@H]2O[C@@H](n3c[n+](C)c4c(=O)[nH]c(N)nc43)[C@H](O)[C@@H]2CCN2CCOCC2)O[C@H]1n1cnc2c(N)ncnc21 [Compound 633] | 100 | B (95% > B ≥ 90%) |  | 
